Here are results for 1 compound from patent publication US7750184B2, “Vitamin D receptor modulators” (Eli Lilly and Company, priority 2003, dated 2010).

Holding throughout (type): cell-based
The test system of one assay is rat osteocalcin promoter. The experiment in a line: OCN (osteocalcin) promoter assay. The settings on record: RG-15 (ROS 17/2.8) cells, 48 hr treatment, luciferase reporter.
Assay [1] relates to IL-10 production in PBMCs. Nature of the assay: IL-10 induction assay. To be noted: PBMC; TPA/PHA stimulated human PBMCs, IL-10 immunoassay. An excerpt:
6. The IL-10 induction Assay
This is an in vitro efficacy assay for psoriasis, abscess and adhesion. Psoriasis involves both keratinocytes and immune cells. IL-10 is a unique cytokine because it is anti-inflammatory and immunosuppressive. This assay tells us whether a VDRM is able to function as an agonist in PBMCs (primary blood mononuclear cells) or not. A lower EC50 value is desirable in this assay since a compound with a lower EC50 value will be a better agonist in PBMCs.
(6) Materials and Method for Human IL-10 Induction Assay:
Isolation of Peripheral Blood Mononuclear Cells (PBMCs):
• A. Collect 50 ml of human blood and dilute with media, RPMI-1640. • B. Prepare sterile tubes with ficol. • C. Add diluted blood to tubes. • D. Centrifuge. • E. Discard the top layer and collect the cells from middle layer. • F. Divide all cells into four tubes and add media. • G. Centrifuge. • H. Aspirate off media and resuspend. • I. Collect all cells • J. Centrifuge. at 1200 rpm for 10 minutes. • K. Resuspend in RPMI-1640 with 2% FBS and count cells • Stimulation of PBMC: • L. Prepare TPA in DMSO. • M. Dissolve PHA in water. • N. Plate TPA/PHA treated PBMCs in well plates. • O. Incubate.
Treatment: • P. Prepare all compound dilutions in plain RPMI-1640 media. • Q. Add diluted compound. • R. Incubate. […]

In another assay the target is T1, VDR (Homo sapiens, UniProt P11473).
T1 construct: the receptor expression vector pGal4-VDR-LBD (10 ng); expressed in transfected cells; host or cells: Caco-2 cells
T1 sequence (P11473 127-423 limits assumed): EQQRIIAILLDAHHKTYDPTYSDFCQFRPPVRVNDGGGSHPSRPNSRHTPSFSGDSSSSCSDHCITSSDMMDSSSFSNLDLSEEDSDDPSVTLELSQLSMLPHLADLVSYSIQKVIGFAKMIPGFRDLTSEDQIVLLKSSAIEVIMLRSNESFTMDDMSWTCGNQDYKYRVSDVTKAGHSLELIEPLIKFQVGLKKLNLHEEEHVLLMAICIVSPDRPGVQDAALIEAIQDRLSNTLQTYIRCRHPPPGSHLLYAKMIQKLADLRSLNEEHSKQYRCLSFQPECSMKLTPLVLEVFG
Nature of the assay: Caco-2 cell co-transfection assay (VDR CTF). The settings on record: Caco-2 cells, pGal4-VDR-LBD co-transfection, luciferase reporter.

The test system of a further assay is KERtr cells. The experiment in a line: Keratinocyte proliferation assay. The settings on record: Homo sapiens, 72 hr, BrdU incorporation, read-out: Kera. Prolif. IC50. On the procedure: 5. The Keratinocte Proliferation Assay
This Assay is indicative for the treatment of psoriasis.
(5) The Keratinocyte Proliferation Assay:
KERtr cells (Human skin keratinocyte transformed with a retrovirus vector, obtained from ATCC) were plated in 96-well flat-bottomed plates (3000 cells/well) in 100 µl keratinocyte serum free medium supplemented with bovine pituitary extract in the absence of EGF (Life Technologies, Rockville, Md.) and incubated at 37° C. for two days. The cells were treated with various concentrations of VDR ligands (ten-fold serial dilution from 10,000 nM to 0.1 nM in triplicate), dissolved in 100 μl keratinocyte serum free medium supplemented with bovine pituitary extract in the absence of EGF and incubated at 37° C. for 72 hr. BrdU (5-bromo-2′-deoxyuridine) incorporation was analyzed as a measure of DNA replication (Cell proliferation ELISA kit, Roche Diagnostics, Indianapolis, Ind.) and absorbance was measured at 405 nm. Potency values (IC50) values were determined as the concentration (nM) of compound that elicited a half-maximal response.

In another assay the target is T2, RXR-VDR heterodimer (Homo sapiens, UniProt P11473).
T2 construct: Add the Gal4-RXR-DEF and VP16-VDR-LBD; expressed in transfected cells; host or cells: SaOS-2 cells
T2 sequence (P11473 127-423 limits assumed): T1 sequence (P11473 127-423 limits assumed)
T2 sequence (P19793 201-462 partner limits assumed): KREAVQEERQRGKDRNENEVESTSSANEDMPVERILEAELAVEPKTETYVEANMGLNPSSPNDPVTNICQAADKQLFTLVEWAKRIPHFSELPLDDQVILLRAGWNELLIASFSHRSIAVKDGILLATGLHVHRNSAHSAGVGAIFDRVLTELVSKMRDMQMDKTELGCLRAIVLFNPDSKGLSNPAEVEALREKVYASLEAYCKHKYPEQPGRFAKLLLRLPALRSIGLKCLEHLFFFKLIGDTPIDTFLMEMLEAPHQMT
The experiment in a line: RXR-VDR heterodimerization assay (SaOS-2 cells). To be noted: Gal4-RXR-DEF / VP16-VDR-LBD, luciferase reporter. An excerpt:
1. The RXR-VDR heterodimer Assay:
This assay provides the VDR activity of a test compound.
(1) Materials and Method for RXR-VDR Heterodimerization Assay:
Luciferase Assay Reagent: • Use Steady-Glo Luciferase Reagent from Promega (Cat # E2550) Consists of:
Add plain DMEM media to tubes for mixing the DNA
Add the Reporter gene pFR-LUC
Add the Gal4-RXR-DEF and VP16-VDR-LBD
Make a stock solution of the compounds in DMSO
Further dilute in D-MEM (Low Glucose—With out Phenol Red)
Read the plates after drug treatment
Add Steady-Glo Luciferase Reagent mixture/wells
Count each well using a Luminescence counter, Top Count NXT by Packard

With `CCC(CC)(c1ccc(OS(C)(=O)=O)cc1)c1ccc(OCC(O)C(C)(C)C)c(Cl)c1` (single isomer, unassigned) [Ex. 45, 51B, 3′-[3-chloro-4-(2-hydroxy-3,3-dimethylbutoxy)phenyl]-3′-(4-methylsulfonyloxyphenyl)pentane], the results for the EC50 with rat osteocalcin promoter, at VDR and on RXR-VDR heterodimer were 13 nM, 353 nM and 24 nM, respectively. Besides, the concentration for half-maximal inhibition (IC50) was determined as 39.5 nM in assay [1] and 27 nM in the assay with KERtr cells.
